# Measurements: a melting point compilation (Tetko et al.; mined from patent text by program, amines drawn as free bases though some values may be those of a salt)
row,melting point,Compound
1,132 °C,CCc1nc(SC)nn1-c1ccc(N)cc1
2,159 to 164 °C,CCCc1c(OCCCCCc2c(O)c(O)cc(Cl)c2Cl)ccc(C(=O)O)c1O
3,> 260 °C,COc1ccc(-c2nc3c(o2)C(=O)c2ccccc2C3=O)cc1
4,133 to 135 °C,CCCCOC(=O)c1ccc(NCc2cc(Br)ccc2OCc2ccccc2)nn1
5,126 to 127 °C,COC(=O)CCCc1ccc(CN2CCN(c3ccncc3)CC2)cc1
6,124 °C,CCCCCCCc1cn(CC(O)c2ccccc2)c(=N)s1 (stereo not drawn)
7,144 to 147 °C,CC(C)(ON=C(C(=O)N[C@@H]1C(=O)N[C@@H]1C(N)=O)c1csc(NC(=O)CCl)n1)C(=O)OCc1ccc([N+](=O)[O-])cc1 (relative stereo)
8,86 to 87 °C,CCCC(=O)Oc1ccc(OC(=O)CCC)c(C#N)c1C#N
9,185 to 186 °C,COC(=O)[C@H](Cc1ccc(O)cc1)Nc1ccccc1C(=O)c1ccccc1
10,140 to 145 °C,O=C1Nc2ccccc2C12CCC2
11,217 to 219 °C,CC(C)CC(=O)Nc1cncc(-c2ccnc3c(C(=O)c4cccs4)cnn23)c1
12,265 to 268 °C,COCc1nc(N)nc(N)c1-c1cc(Cl)cc(Cl)c1Cl
13,175 to 177 °C,COC(=O)c1ccc(Cc2ccc(NC(C)=O)cc2)cn1
14,91 to 94 °C,COc1ccccc1-c1cccn2nc(Nc3ccc4c(c3)CCN(CCS(C)(=O)=O)CC4)nc12
15,218 to 220 °C,COc1cc(Nc2c(C#N)cnc3cc(/C=C/C(=O)N4CCN(C)CC4)sc23)c(Cl)cc1Cl
16,145 to 146 °C,CC(C(=O)O)c1cc(CC(=O)O)c(-c2ccccc2)s1 (stereo not drawn)
17,160 to 162 °C,CC(C)(C)OC(=O)NCc1ccc(C(=O)NNC(=O)OCc2ccccc2)cc1
18,247 to 248 °C,N#Cc1cc2c3c(cccc3c1N1CCCC1)C(=O)N(O)C2=O
19,177 to 179 °C,COc1cc2c(C)c(C#N)cnc2cc1F
20,54 to 57 °C,CCOC(=O)C(=O)Nc1nc(C(C)C)cs1
21,103 to 104 °C,CCCCOc1nc2cc(C)nn2c2c1cnc1c2cnn1CC
22,124 to 127 °C,CSC1=Nc2ccc(Cl)cc2C(=O)N(C)C1
23,73 to 74 °C,O=C(CCCc1ccccc1)OCCCCCCCCCCCCNCC(O)c1ccccc1 (stereo not drawn)
24,235 to 236 °C,CSc1nnc2c(=O)[nH]c(-c3ccccc3OCC3CC3)nc2n1
25,201 to 205 °C,O=C(Nc1cc(Cl)cc2c(Cl)ccnc12)c1c(Cl)cccc1Cl

row,melting point,Compound
1,127 °C,COc1ccc(C=CC(=O)c2c(OC)cc(OC)cc2OC(=O)c2ccco2)cc1
2,165 to 170 °C,CN1C(=O)C(=Cc2cc(C(C)(C)C)c(O)c(C(C)(C)C)c2)SC1O (stereo not drawn)
3,218 to 222 °C,CN(CCOCC(=O)OC(C)(C)C)C(=O)c1c(-c2ccc(C(C)(C)C)cc2)n(C)n(-c2ccc(C#N)cc2)c1=O
4,160 to 162 °C,Cc1ccc(-n2nc(Cl)cc2-c2ccc(S(C)(=O)=O)cc2)cc1F
5,195 °C,CCOP(=O)(CCNC1CCN(S(=O)(=O)c2ccc(Nc3nccc(Nc4ccc(F)cc4)n3)cc2)CC1)OCC
6,119 to 121 °C,Cc1ccccc1-c1nc(-c2ccc(F)cc2)n[nH]1
7,129 to 131 °C,CNc1nc(Cl)c(Cl)c(N2CCN(C(=O)OC(C)(C)C)CC2)n1
8,120 to 121 °C,CCOC(=O)C1=Cc2cc(Br)ccc2NCC1
9,105 to 109 °C,CCOC(=O)c1ccc2ccccn2c1=O
10,77 to 78 °C,CCCCc1nc(C(C)=O)c(C#N)[nH]1
11,216 to 219 °C,Cc1c(O)ccc2c(-c3ccccc3F)noc12
12,124 to 126 °C,COc1cc(-c2ccccc2C(F)(F)F)c(Cl)cc1C(=O)N1Cc2ccc(C(=O)N(C)Cc3cccnc3)n2Cc2ccccc21
13,192 °C,COC(=Cc1ccc(-c2cccc(N(C)C(=O)NC3CCCCC3)c2)cc1)C(=O)O
14,313 to 315 °C,O=c1c(-c2nnn[nH]2)cnc2c(Cl)cccn12
15,245 to 247 °C,Cc1cc(Cc2ccc(C(=O)O)cc2)n(C)c1C(=O)c1ccc(Cl)cc1
16,190 to 192 °C,COc1ccc(-c2cc3cc(F)c(F)cc3[nH]2)cc1NCc1cccs1
17,90 to 92 °C,COc1ccc(-n2nc(-c3ccc(OC)c(CCC(=O)N(C)O)c3OC)cc2-c2ccc(Cl)cc2)cc1
18,> 250 °C,CCOC(=O)c1c[nH]c2c(-c3ccncc3)c(-c3ccc(F)cc3)nn2c1=O
19,230 to 235 °C,COc1ccccc1NC(=O)Nc1nc(Oc2ccc3ccccc3c2)nc(N2Cc3ccccc3CC2C(=O)O)n1 (stereo not drawn)
20,160 to 161 °C,Cc1cccc(COc2cccc(OCc3ccc4cc(F)ccc4n3)c2)c1OCC(=O)O
21,142 °C,O=C1c2ccccc2C(=O)N1Cc1ccccc1-c1noc2ccccc12
22,67 to 70 °C,CNS(=O)(=O)c1ccc(F)cc1
23,123 to 127 °C,CC(C(=O)O)c1ccc(CC2CCCCC2O)c(Cl)c1 (stereo not drawn)
24,241 °C,Cc1ccc2c(c1)C(c1ccccc1)CC(N1CCN(C3CC(c4ccccc4)c4cc(C)ccc4O3)CC1)O2 (stereo not drawn)
25,160 °C,CC(NC(=O)c1ccc(-c2ccccc2)cc1)C(=O)O (stereo not drawn)

row,melting point,Compound
1,58 to 60 °C,C=C(CCCl)C(=O)c1ccc(OC)c(Cl)c1Cl
2,92 to 95 °C,CCN(C(=O)CCCCc1nnnn1C1CCCCC1)C1CCCCC1
3,324 to 326 °C,c1cc(-c2cc3nccnc3[nH]2)ccn1
4,197 to 199 °C,COc1ccc(C(=O)Nc2cc(OC)c(Cl)cc2OC)cc1F
5,168 °C,OC1(c2cccc3[nH]ccc23)CCN(CCOc2ccccc2)CC1
6,120 to 121 °C,CC(C)(C)OC(=O)Nc1ncccc1Br
7,109 to 110 °C,CCCOc1ccccc1-c1nc(C)cc(O)n1
8,158 to 159 °C,CCOC(=O)c1cn(Cc2ccccc2)nc1OCc1ccc(OCc2nc(-c3ccco3)oc2C)c(Br)c1
9,120 to 122 °C,Cc1[nH]c2ccc(/C=C/C(=O)OCc3ccccc3)cc2c1Cn1ccnc1
10,126 to 129 °C,COc1cc(OC)c(S(=O)(=O)Cl)c(OC)c1
11,212 to 214 °C,CC12CCC(C1)C1(C)Oc3ccc(CCOc4ccc(C(=O)O)c(O)c4)cc3C21C (stereo not drawn)
12,90 to 92 °C,Cc1cc(CN2N=C(C(F)(F)C(F)(F)F)NC2(O)c2ccc(Cl)cc2)ccc1[N+](=O)[O-] (stereo not drawn)
13,212 to 213 °C,COc1cc2c3cc(OC)c(OC)cc3n(S(=O)(=O)c3ccccc3)c2cc1OC
14,122 to 127 °C,CCCCCCCCNc1c(Nc2ccc(CC(C)NC[C@H](O)COc3ccc(O)cc3)cc2)c(=O)c1=O (stereo partly drawn)
15,175 to 187 °C,CCCn1c(=O)c2c(nc(/C=C/c3ccc(Cl)cc3)n2C)n(CCC)c1=O
16,212 to 213 °C,CC(=O)N1CCC2(CC1)Nc1cc(C)ccc1-n1cccc12
17,220 to 225 °C,O=C(O)c1cc(C(F)(F)F)cc(-c2ccc(Cl)c(C(=O)NCC34CC5CC(CC(C5)C3)C4)c2)n1
18,190 to 194 °C,O=C(CP(=O)(O)O)NC12CC3CC(CC(C3)C1)C2
19,187 to 190 °C,CCNC(=O)c1ccc(-c2ccc3nnn(Cc4ccc5ncccc5c4)c3n2)cc1Cl
20,55 °C,CN(CCSC(=O)Cc1ccccc1Nc1c(Cl)cccc1Cl)CC1(S)CCCCC1
21,219 to 221 °C,COc1ccccc1C(=O)OC(=C1C(=O)N(C(N)=O)c2cc(Cl)c(F)cc21)c1cccs1
22,72 to 74 °C,Cc1cn(C(C)C(=O)N2CCCC2)nc1-c1ccccc1 (stereo not drawn)
23,155 to 156 °C,COC(=O)C1=C(C)NC(=S)N(C(=O)Cc2ccccc2)C1c1cccc([N+](=O)[O-])c1 (stereo not drawn)
24,175 to 177 °C,COC(=O)CCCc1n[nH]c(=O)c2cc(OC)ccc12
25,72 to 73.5 °C,Cc1ccc(N=CN(C)SN(C)c2ccccc2)c(C)c1

row,melting point,Compound
1,135 to 139 °C,N=C(N)SCCc1ccc(Cl)c(Cl)c1
2,145 to 147 °C,COc1cc(OC)nc(NC(=O)NS(=O)(=O)c2ncccc2CSC)n1
3,126 °C,O=C(c1ccccc1)c1cccc(Cl)c1[N+](=O)[O-]
4,> 340 °C,O=c1[nH]c2sc3ccc(Cl)cc3c2[nH]c1=O
5,188 to 200 °C,Cc1cc(=O)n(-c2cc(C(=O)OC(C)C)c(C#N)cc2F)c(=O)n1C
6,180 °C,Cn1c2c(c3cccc(C(=O)O)c31)CCCC2
7,126 to 128 °C,CC(C)(C)C(=O)Oc1cc(OS(=O)(=O)C(F)(F)F)cc2oc(-c3ccccc3)cc(=O)c12
8,196 °C,O=S(=O)(NC1CC1)c1cccc(-c2cc(-c3nc(-c4ccc(C(F)(F)F)cc4)cc(C(F)(F)F)n3)ccn2)c1
9,68 to 69 °C,CC(C)(c1ccc(Oc2ccc(N=C=O)cc2)cc1)c1ccc(Oc2ccc(N=C=O)cc2)cc1
10,250 to 251 °C,CCn1cc(C(=O)O)c(=O)c2cc(F)c(C(C)=O)c(F)c21
11,59 to 61 °C,Fc1ccc(CCCCN2CCN(c3ncc(F)cn3)CC2)cc1
12,120 to 121 °C,Oc1ccc(-c2nc3cc(O)cc(-c4ccco4)c3o2)cc1
13,182 to 185 °C,O=C(Cn1c(-c2ccncc2)ncc(NC(=O)OCc2ccccc2)c1=O)NC(Cc1ccccc1)C(=O)C(F)(F)F (stereo not drawn)
14,90 to 93 °C,CCCCCCCNC(=O)Oc1ccc2c(c1)c(C)cn2NCCCc1ccncc1F
15,91 to 92 °C,N#CCNC(=O)C1CC1
16,100 to 102 °C,Cc1ccc(C2=NN(C(=O)c3cccnc3)CC2)cc1
17,164 °C,Oc1c(Br)cc(Cl)cc1Cc1cc(F)cc(Cc2cc(Cl)cc(Br)c2O)c1O
18,153 to 154 °C,CC(C)c1cccc(C(C)C)c1NC(=O)CN1CCN(CCSc2nc3ncccc3o2)CC1
19,139 to 140 °C,Cc1oc(-c2ccccc2)nc1COc1ccc(COc2cncc(CC(=O)O)c2)cc1
20,93 to 94 °C,CCCCCCCCCCCCc1ccc(S(=O)(=O)Nc2nnc(CC)s2)cc1
21,121 to 123 °C,C#CCOc1ccc2c(c1)c(-c1ccc(C(C)C)cc1)nc(=O)n2Cc1cccnc1O
22,67 to 72 °C,O=S(=O)(CCl)N(Cc1cccnc1)C1CCCCC1

row,Compound,melting point
1,CC[C@@H]1NC(C)(C)CO[C@@]1(O)c1cccc(Cl)c1,160 to 161 °C
